Results from US20220331237A1, “DEVICE, METHODS AND USES FOR TREATING ANAPHYLAXIS” (1232176 B.C. Ltd., priority 2021, published 2022).
Read-outs that look alike come from different tables or passages of the source.

Columns and labels:
[1] = Protocol: Briefly, a Next Generation Impactor (Model 170 NGI; Copley) was used to capture dose exiting a regular non-sectioned AIT (used here to minimize assay steps) at an inhalation flowrate of 30 L/min. Interior surfaces of the AIT and the impaction plates within the NGI were coated with silicone grease (Molykote 316; Dow Corning) prior to testing. […] Following actuation, the AIT was washed twice with 10 mL of 0.1 N HCl, while each plate of the NGI was washed once with 5 mL of 0.1 N HCl. Samples were assayed via UV spectroscopy at the absorbance maximum of 279 nm, as discussed above.
Tests were performed using the 0.22 mm actuator orifice with Primatene Mist HFA. Both transverse and coaxial insertion angles were used, with three repeated measures taken at each orientation. Particle size distributions were characterized via calculation of the mass median aerodynamic diameter (MMAD) and geometric standard deviation (GSD) via linear interpolation (e.g., Hinds W C. 2nd ed. Hoboken, N.J.: Wiley; 1999). A validated regional lung deposition model (e.g., Javaheri et al., J Aerosol Sci. 2013, 64:81-93 and Finlay et al., Lung Delivery of Aerosolized Dextran. 2000, 161:91-7) was used to estimate tracheobronchial and alveolar deposition from the measured particle size distributions under a simulated breath with an inhaled volume of 3.0 L, inhalation flowrate of 30 L/min, a pause between inhalation of (i) 0 or (ii) 10 seconds, and exhalation flowrate of 30 L/min.

[2] = system: grade 2 or higher acute allergic reaction
Description: Institutional Review Board approval was obtained for the study and informed consent was obtained from study participants.

[3] = Commercial actuator, previously reported, cited from earlier work
[4] = 0.22 mm actuator orifice, unaffected by insertion angle
[5] = 0.22 mm actuator, Coaxial, 30 L/min
[6] = 0.22 mm actuator, Transverse, 30 L/min

Compound: CNCC(O)c1ccc(O)c(O)c1 (stereo not drawn) [epinephrine, 4-(1-hydroxy-2-(methylamino)ethyl)benzene-1,2-diol]
- GSD [1, 4]: ~1.63
- MMAD [1, 4]: approximately 2 μm
- Deposition, NGI Stage 1 [1, 5]: 1.9 µg
- Deposition, NGI Stage 2 [1, 5]: 1.9 µg
- Deposition, NGI Stage 3 [1, 5]: 8.5 µg
- Deposition, NGI Stage 4 [1, 5]: 82.6 µg
- Deposition, NGI Stage 5 [1, 5]: 122.2 µg
- Deposition, NGI Stage 6 [1, 5]: 42.0 µg
- Deposition, NGI Stage 7 [1, 5]: 7.6 µg
- Deposition, NGI Stage 8 [1, 5]: 0.0 µg
- Deposition, Throat [1, 5]: 78.6 µg
- Deposition, Total Recovered [1, 5]: 345.2 µg
- MMAD (mass median aerodynamic diameter) [1, 5]: 2.00 μm
- Deposition, NGI Stage 1 [1, 6]: 1.5 µg
- Deposition, NGI Stage 2 [1, 6]: 1.4 µg
- Deposition, NGI Stage 3 [1, 6]: 8.8 µg
- Deposition, NGI Stage 4 [1, 6]: 80.8 µg
- Deposition, NGI Stage 5 [1, 6]: 121.7 µg
- Deposition, NGI Stage 6 [1, 6]: 43.6 µg
- Deposition, NGI Stage 7 [1, 6]: 9.5 µg
- Deposition, NGI Stage 8 [1, 6]: 0.0 µg
- Deposition, Throat [1, 6]: 95.8 µg
- Deposition, Total Recovered [1, 6]: 363.0 µg
- MMAD (mass median aerodynamic diameter) [1, 6]: 1.98 μm
- MMAD (mass median aerodynamic diameter) ([1]; Commercial actuator, Coaxial, calculated here from previously reported deposition): 2.05 μm
- MMAD (mass median aerodynamic diameter) ([1]; Commercial actuator, Transverse, calculated here from previously reported deposition): 1.93 μm
- Tachycardia ([2]; Patient 1, 4 puffs given): Yes
- Time to Resolution of Allergic Reaction After Treatment Initiated ([2]; Patient 1, 4 puffs given): 3 min
- Tremors ([2]; Patient 1, 4 puffs given): Yes
- Tachycardia ([2]; Patient 2, 4 puffs given): Yes
- Time to Resolution of Allergic Reaction After Treatment Initiated ([2]; Patient 2, 4 puffs given): within 2 mins
- Tremors ([2]; Patient 2, 4 puffs given): Yes
- Tachycardia ([2]; Patient 3, 4 puffs given): Yes
- Time to Resolution of Allergic Reaction After Treatment Initiated ([2]; Patient 3, 4 puffs given): 0.5 min
- Tremors ([2]; Patient 3, 4 puffs given): Yes
- Tachycardia ([2]; Patient 4, 2 puffs given): Yes
- Time to Resolution of Allergic Reaction After Treatment Initiated ([2]; Patient 4, 2 puffs given): 1 min
- Tremors ([2]; Patient 4, 2 puffs given): Yes
- Tachycardia ([2]; Patient 5, 6 puffs given): Yes
- Time to Resolution of Allergic Reaction After Treatment Initiated ([2]; Patient 5, 6 puffs given): 6 min
- Tremors ([2]; Patient 5, 6 puffs given): Yes
- Tachycardia ([2]; Patient 6, 9 puffs given): Yes
- Tremors ([2]; Patient 6, 9 puffs given): Yes
- Time to Resolution of Allergic Reaction After Treatment Initiated ([2]; Patient 6, 9 puffs given, entry runs on: resolved after 5 puffs, but recurred after 5 mins): resolved after 5
- Time to recurrence of allergic reaction after resolution ([2]; Patient 6, 9 puffs given, resolved after 5 puffs): after 5 mins
- Tachycardia ([2]; Patient 7, 2 puffs given): Yes
- Time to Resolution of Allergic Reaction After Treatment Initiated ([2]; Patient 7, 2 puffs given): 2 min
- Tremors ([2]; Patient 7, 2 puffs given): Yes
- Tachycardia ([2]; Patient 8, 2 puffs given): Yes
- Time to Resolution of Allergic Reaction After Treatment Initiated ([2]; Patient 8, 2 puffs given): 1 min
- Tremors ([2]; Patient 8, 2 puffs given): Yes
- Tachycardia ([2]; Patient 9, 2 puffs given): Yes
- Time to Resolution of Allergic Reaction After Treatment Initiated ([2]; Patient 9, 2 puffs given): 1 min
- Tremors ([2]; Patient 9, 2 puffs given): Yes
- Tachycardia ([2]; Patient 10, 5 puffs given): Yes
- Time to Resolution of Allergic Reaction After Treatment Initiated ([2]; Patient 10, 5 puffs given): 1 min
- Tremors ([2]; Patient 10, 5 puffs given): Yes
- Tachycardia ([2]; Patient 11, 2 puffs given): Yes
- Tremors ([2]; Patient 11, 2 puffs given): Yes
- Tachycardia ([2]; Patient 12, 2 puffs given): Yes
- Time to Resolution of Allergic Reaction After Treatment Initiated ([2]; Patient 12, 2 puffs given): 1 min
- Tremors ([2]; Patient 12, 2 puffs given): Yes
- Tachycardia ([2]; Patient 13, 2 puffs given): Yes
- Time to Resolution of Allergic Reaction After Treatment Initiated ([2]; Patient 13, 2 puffs given): 1 min
- Tremors ([2]; Patient 13, 2 puffs given): Yes
- Tachycardia ([2]; Patient 14, 2 puffs given): Yes
- Time to Resolution of Allergic Reaction After Treatment Initiated ([2]; Patient 14, 2 puffs given): 1 min
- Tremors ([2]; Patient 14, 2 puffs given): Yes
- Tachycardia ([2]; Patient 15, 6 puffs given): Yes
- Time to Resolution of Allergic Reaction After Treatment Initiated ([2]; Patient 15, 6 puffs given): 4 min
- Tremors ([2]; Patient 15, 6 puffs given): Yes
- Tachycardia ([2]; Patient 16, 4 puffs given): Yes
- Time to Resolution of Allergic Reaction After Treatment Initiated ([2]; Patient 16, 4 puffs given): 1.5 min
- Tremors ([2]; Patient 16, 4 puffs given): Yes
- Tachycardia ([2]; Patient 17, 3 puffs given): Yes
- Time to Resolution of Allergic Reaction After Treatment Initiated ([2]; Patient 17, 3 puffs given): 1.5 min
- Tremors ([2]; Patient 17, 3 puffs given): Yes
- Tachycardia ([2]; Patient 18, 2 puffs given): Yes
- Time to Resolution of Allergic Reaction After Treatment Initiated ([2]; Patient 18, 2 puffs given): within 30 secs
- Tremors ([2]; Patient 18, 2 puffs given): Yes
- Tachycardia ([2]; Patient 19, 4 + 2 puffs given): Yes
- Time to recurrence of allergic reaction after resolution ([2]; Patient 19, 4 + 2 puffs given): after 10 mins, then
- Tremors ([2]; Patient 19, 4 + 2 puffs given): Yes
- Time to resolution of the recurred allergic reaction ([2]; Patient 19, 4 + 2 puffs given, after recurrence): resolved in 1 min
- Time to Resolution of Allergic Reaction After Treatment Initiated ([2]; Patient 19, 4 + 2 puffs given, initial resolution): 1 minute, recurred
- Need for treatment with intramuscular epinephrine ([2]; all study participants): No study participants required treatment with intramuscular epinephrine
- Resolution of clinical symptoms (laryngopharyngeal and systemic) ([2]; all study participants, Primatene Mist HFA via Bespak BK633 actuator (0.22 mm)): prompt resolution of clinical symptoms
- Recurrence of symptoms after initial resolution ([2]; all study participants, further doses of oral inhaled epinephrine given): In two instances symptoms recurred after initial resolution and again resolved promptly
- Deposition, NGI Stage 1 ([3]; Coaxial): 2.1 µg
- Deposition, NGI Stage 2 ([3]; Coaxial): 2.5 µg
- Deposition, NGI Stage 3 ([3]; Coaxial): 11.1 µg
- Deposition, NGI Stage 4 ([3]; Coaxial): 72.9 µg
- Deposition, NGI Stage 5 ([3]; Coaxial): 99.1 µg
- Deposition, NGI Stage 6 ([3]; Coaxial): 34.1 µg
- Deposition, NGI Stage 7 ([3]; Coaxial): 6.3 µg
- Deposition, NGI Stage 8 ([3]; Coaxial): 0.0 µg
- Deposition, Throat ([3]; Coaxial): 136.3 µg
- Deposition, Total Recovered ([3]; Coaxial): 364.3 µg
- Deposition, NGI Stage 1 ([3]; Transverse): 0.8 µg
- Deposition, NGI Stage 2 ([3]; Transverse): 1.1 µg
- Deposition, NGI Stage 3 ([3]; Transverse): 6.8 µg
- Deposition, NGI Stage 4 ([3]; Transverse): 56.0 µg
- Deposition, NGI Stage 5 ([3]; Transverse): 96.8 µg
- Deposition, NGI Stage 6 ([3]; Transverse): 37.7 µg
- Deposition, NGI Stage 7 ([3]; Transverse): 6.6 µg
- Deposition, NGI Stage 8 ([3]; Transverse): 0.0 µg
- Deposition, Throat ([3]; Transverse): 212.9 µg
- Deposition, Total Recovered ([3]; Transverse): 418.8 µg
